Data published in patent US12234223B2, “Phthalazinone compound, and preparation method therefor and medical use thereof” (SHANGHAI JEMINCARE PHARMACEUTICALS CO., LTD, priority 2020, dated 2025).

Target: T1, Androgen receptor (Homo sapiens, UniProt P10275)
T1 construct: Dmax: a maximum degradation degree of AR in VCaP cells; endogenous in cells; host or cells: VCaP cells
T1 sequence (P10275 1-920): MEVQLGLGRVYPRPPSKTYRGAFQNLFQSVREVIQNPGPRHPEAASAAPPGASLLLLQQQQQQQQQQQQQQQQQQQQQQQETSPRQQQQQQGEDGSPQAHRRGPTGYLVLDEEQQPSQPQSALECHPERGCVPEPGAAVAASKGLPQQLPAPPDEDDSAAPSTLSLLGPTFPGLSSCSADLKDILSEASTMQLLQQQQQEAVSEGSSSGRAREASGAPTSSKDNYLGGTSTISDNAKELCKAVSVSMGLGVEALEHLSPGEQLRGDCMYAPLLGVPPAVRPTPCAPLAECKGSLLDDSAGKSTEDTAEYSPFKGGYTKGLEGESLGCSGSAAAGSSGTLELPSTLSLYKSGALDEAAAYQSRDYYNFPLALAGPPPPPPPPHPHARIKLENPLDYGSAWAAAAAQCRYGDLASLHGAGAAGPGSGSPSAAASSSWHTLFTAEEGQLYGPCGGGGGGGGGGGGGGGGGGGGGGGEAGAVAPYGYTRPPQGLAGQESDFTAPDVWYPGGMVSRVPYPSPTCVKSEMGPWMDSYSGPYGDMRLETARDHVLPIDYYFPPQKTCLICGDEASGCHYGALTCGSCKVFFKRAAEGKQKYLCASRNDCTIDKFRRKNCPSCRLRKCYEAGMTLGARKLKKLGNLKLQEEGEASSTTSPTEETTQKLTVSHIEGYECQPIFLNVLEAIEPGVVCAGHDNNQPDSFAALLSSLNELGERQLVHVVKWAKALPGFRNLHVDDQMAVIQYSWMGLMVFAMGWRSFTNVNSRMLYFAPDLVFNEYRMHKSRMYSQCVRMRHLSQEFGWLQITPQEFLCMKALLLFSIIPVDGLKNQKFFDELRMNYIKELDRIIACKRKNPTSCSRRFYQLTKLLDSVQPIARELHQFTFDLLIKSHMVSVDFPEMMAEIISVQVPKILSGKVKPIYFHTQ
Assay: Androgen receptor In-Cell-Western assay (AR degradation in VCaP cells)
Assay type: cell-based
Details: 24 hours treatment; for DC50: concentration for half the maximum degradation degree of AR in VCaP cells; for Dmax: maximum degradation degree of AR in VCaP cells
Procedure: This assay evaluated compound performance in VCap cells. An intracellular androgen receptor was assayed by In-Cell-Western according to the assay procedure described below.
In a 96-well cell culture plate (Corning 3599) pretreated by poly-D-Lysin, Vcap cells were seeded to a Vcap cell assay medium [phenol red containing DMEM (Gibco Cat. No.: 11995065); fetal bovine serum FBS (Gibco Cat. No.: 10099141C)] at a volume of 100 μL/well and a cell density of 50,000 cells/well. Cells were cultured for at least two days. • 1. First, cells were treated with a compound. The compound was subjected to a gradient dilution by using DMSO and a cell culture medium, so that DMSO contained in the cell culture plate was diluted to 0.5%: a polypropylene plate was used according to the following protocol: • (1) (i) A 200× stock solution plate was prepared in DMSO; (ii) a 10 mM stock solution was diluted at 1:4 (10 μL stock solution+40 μL DMSO=2000 uM) with DMSO to enter row 2; (iii) a 1:4 (10 μL protac+40 μL DMSO) gradient dilution was performed from row 2 to row 9, row 1 was reserved for a 2000 uM reference compound and row 10 was reserved for DMSO. (iv) There were 8 concentrations (the final concentrations on the 200× plate was 2000 uM, 400 uM, 80 uM, etc.) in total. (2) (i) A 3× stock solution was prepared in the medium; (ii) 3 μL of the 200× stock solution was transferred to 197 μL of the medium (by a 12-channel pipette, from row 1 to row 10), i.e. a 3× stock solution plate. (iii) Uniform mixing was performed for the stock solution plate. (3) (i) The medium of Vcap cells was replaced with a fresh medium, with the medium volume of 100 μL. (ii) The uniformly-mixed 3× stock solution was transferred to the cell culture plate (by the 12-channel pipette, 50 μL of the stock solution was transferred from row 1 to row 10). (iii) The cells were cultured for 24 hours. • 2. The expression level of the intracellular androgen receptor after compound treatment was detected, and assay was performed according to the following method. • (1) (i) An equal volume of 8% paraformaldehyde was added to the cell culture plate for cell fixation. A fixative solution in the cell plate was discarded, and the cell plate was washed three times with PBS. (ii) A Triton solution was prepared (the stock solution was diluted at 1:1000). The solution in the cell plate was discarded, and a volume of 200 μL of a Triton diluent was added to each well. (iii) A 2× blocking solution was prepared (a 10× blocking stock solution was diluted at 1:4). The solution in the cell plate was discarded, and a volume of 100 μL of the 2× blocking solution was added to each well. (iv) A primary antibody solution (Androgen receptor Rabbit mAb, Cell Signaling Technology Cat. No.: 5153; 1:1000 dilution) was prepared. The solution in the cell plate was discarded, a volume of 100 μL of a primary antibody diluent was added to each well, and incubation was performed at 4 degrees overnight. (v) The primary antibody solution was discarded, and the cell plate was washed with 1× Wash buffer (Wash buffer in the present application means a washing buffer solution). (vi) A secondary antibody solution (Goat anti Rabbit IgG (H+L) Secondary Antibody, HRP, Thermo Cat. No.: 31460; 1:5000 dilution) was prepared, and a volume of 100 μL of a secondary antibody diluent was added to each well for incubation. (vii) The secondary antibody solution in the cell plate was discarded, and the cell plate was washed with 1× Wash buffer. (viii) A TMB chromogenic solution (BD Cat. No.: 550534) was prepared, and a volume of 100 μL of the chromogenic solution was added to each well. (ix) A volume of 50 μL of a stop solution (BD Cat. No.: 550534) was added to each well. (x) Absorption values at OD 450 nm and 570 nm were read by EnVision. (2) (i) Normalized analysis was performed for the number of cells in each well. The solution in the cell plate was discarded, and the cell plate was washed three times with wash buffer. […]

Row | DC50 [nM] | Dmax [%] | SMILES
1 | 10 | 97 | CC1(C)[C@H](NC(=O)c2ccc(N3CCC(CN4CCN(c5ccc6c(=O)n(C7CCC(=O)NC7=O)ncc6c5)CC4)CC3)cc2)C(C)(C)[C@H]1Oc1ccc(C#N)c(Cl)c1 (stereo partly drawn) [Compound 1]
2 | 2.7 | 126 | CC1(C)[C@H](NC(=O)c2ccc(N3CCC(CN4CCN(c5ccc6c(=O)n([C@H]7CCC(=O)NC7=O)ncc6c5)CC4)CC3)cc2)C(C)(C)[C@H]1Oc1ccc(C#N)c(Cl)c1 [Compound 28A]
3 | 8.9 | 169 | CC1(C)[C@H](NC(=O)c2ccc(N3CCC(CN4CCN(c5ccc6c(=O)n(C7CCC(=O)NC7=O)nc(F)c6c5)CC4)CC3)cc2)C(C)(C)[C@H]1Oc1ccc(C#N)c(Cl)c1 (stereo partly drawn) [Compound 29]
